Experimental data published in patent US20140336218A1, “ARFORMOTEROL AND TIOTROPIUM COMPOSITIONS AND METHODS FOR USE” (priority 2008, published 2014).

Tests used:
COPD patients [1] = assay: Inspiratory capacity in 2-week clinical trial; type: in vivo, human; conditions: for Mean (SD) inspiratory capacity improvement from baseline: 2-hours post-dosing; for Difference in trough FEV1 between combined therapy and mono-therapies, LS mean / Change in trough inspiratory capacity, mean (SD): ITT; for Difference in trough FEV1 between combined therapy and mono-therapies, LS mean / Change in trough inspiratory capacity, mean (SD) / Difference between combined therapy and mono-therapies in change in inspiratory capacity, LS mean: week 2; for Difference in trough FEV1 between combined therapy and mono-therapies, LS mean: printed below the trough inspiratory capacity line, combined therapy versus the mono-therapy; for Change in trough inspiratory capacity, mean (SD): trough = 24 hour time point after morning dose; for Difference between combined therapy and mono-therapies in change in inspiratory capacity, LS mean: combined versus the mono-therapy; for Change in Inspiratory Capacity, mean (SD): week 2 from study baseline
Method: (§1) This was a 2-week, prospective, multi-center (34 sites), randomized, modified blind, double dummy, parallel group study designed to evaluate the efficacy and safety of the combination of arformoterol 15 μg BID and tiotropium 18 μg QD (dosed sequentially) versus the individual mono-therapies in the treatment of COPD patients. The study was conducted according to the principles established by the Declaration of Helsinki (see, e.g., World Medical Association Declaration of Helsinki. Recommendations guiding physicians in biomedical research involving human subjects. JAMA 1997; 277:925-926.). Appropriate Institutional Review boards approved the protocol and written informed consent was obtained from the patients.
(§2) Eligible patients were randomized to receive one of three treatments for 14 days: nebulized arformoterol 15 μg (Brovana®, Sepracor Inc., Marlborough, Mass.) BID and placebo DPI QD, nebulized placebo BID and tiotropium 18 μg (Spriva® HandiHaler® Boehringer Ingelheim, Ridgefield, Conn.) DPI QD, or nebulized arformoterol 15 μg BID and tiotropium 18 μg DPI QD. The nebulized drug was administered first using the PARI LC Plus® nebulizer driven by the Duraneb 3000® compressor (Pari: Pari Respiratory Equipment Inc., Midlothian, Va.) at a flow rate of 3.3 L/minute followed (within 5 minutes) by the DPI administration (HandiHaler®). The tiotropium and placebo DPI capsules were identical in size and shape but differed in color.
At week 0 and week 2, medical event calendars and blood samples were collected and vital signs and heart measurements analyzed. At week 0, spirometry was performed pre-morning dose, immediately (within 5 minutes) and at 30 minutes, 1, 2, 4, 6, 8, 10, and 12 hours post-first dose. After the 12-hour pulmonary function test patients self-administered the evening dose of study medication. At week 2, serial spirometry was also performed as at week 0, as well as immediately (within 5 minutes) following the evening dose (administered 12 hours after the morning dose) and 12.5, 13, 14, 16, 23, and 24 hours post-morning dose. Inspiratory capacity was evaluated pre-dose and at 2 hours post-morning dose at week 0, and pre-dose and 2, 11, 14, and 24 hours post-morning dose at week 2. All inspiratory capacity measurements were the mean of acceptable inspiratory capacity maneuvers, two of which were reproducible. Prior to an inspiratory capacity maneuver a patient had to have a stable expiratory level for about 10 breaths. Once the stable level was achieved, at the end of exhalation of a normal breath the patient was asked to make a steady and full inhalation at normal inspiratory flow rates until the lungs were completely full, and then to exhale at a normal rate.
All pulmonary function values used were the highest among the three acceptable maneuvers. The Investigator ensured that all spirometry was performed in accordance with the American Thoracic Society/European Respiratory Society Standardisation of Spirometry guidelines (see, e.g., Miller M R, Hankinson J, Brusasco V, Burgos F, Casaburi R, Coates A, et al. Standardisation of spirometry. Eur Respir J 2005; 26:319-338; herein incorporated in its entirety by reference). Centralized over-reading of spirometry and inspiratory capacity pulmonary function measures were used for quality control.
The study was designed to detect a mean treatment difference of time normalized FEV1AUC over 24 hours (FEV1AUC0-24) (the primary endpoint) of 0.075 L with a standard deviation of 0.016 L when comparing combined therapy with mono-therapy, using a two-sided 5% significance level, following 2-weeks of dosing for the primary comparison with 80% power. All efficacy analyses were performed on the ITT population. All statistical testing was 2-tailed and conducted at the 5% significance level, unless otherwise indicated.

COPD patients [2] = assay: Transition Dyspnea Index (TDI) in 2-week clinical trial; type: in vivo, human; conditions: for Patients with change ≧1 unit (TDI), n (%) / TDI, mean (SD) / Patients with change of ≧1 unit (TDI), n (%) / Difference between combined therapy and mono-therapies in TDI, LS mean / Patients with change of ≧1 unit (TDI), %: week 2; for Patients with change of ≧1 unit (TDI), %: cells print n (%); for improvement in TDI: patients with <50% predicted FEV1 at baseline
Method: as §1, §2
At screening, the Baseline Dyspnea Index (BDI) (see, e.g., Mahler D A, Weinberg D H, Wells C K, Feinstein A R. The measurement of dyspnea. Contents, interobserver agreement, and physiologic correlates of two new clinical indexes. Chest 1984; 85:751-758; herein incorporated in its entirety by reference) was assessed prior to the first clinic dose, and at week 2 the Transition Dyspnea Index (see id.) was evaluated before first morning dose. The baseline focal score (range 0 to 12) and the transition focal score (range −9 to 9) were the sums of the functional impairment, magnitude of task, and magnitude of effort scores (see id.). Higher scores indicate less dyspnea at baseline (BDI) or greater improvement in dyspnea from baseline (TDI).
The study was designed to detect a mean treatment difference of time normalized FEV1AUC over 24 hours (FEV1AUC0-24) (the primary endpoint) of 0.075 L with a standard deviation of 0.016 L when comparing combined therapy with mono-therapy, using a two-sided 5% significance level, following 2-weeks of dosing for the primary comparison with 80% power. All efficacy analyses were performed on the ITT population. All statistical testing was 2-tailed and conducted at the 5% significance level, unless otherwise indicated. […] To control for multiple comparisons, statistical tests of mean treatment group differences were considered significant if the overall treatment effect in the model was statistically significant at the 5% level. Pulmonary function severity subgroup analysis was performed post hoc by stratifying patients according to the GOLD COPD guidelines (see, e.g., Pauwels R A, Buist A S, Calverley P M, Jenkins C R, Hurd S S. Global strategy for the diagnosis, management, and prevention of chronic obstructive pulmonary disease. NHLBI/WHO Global Initiative for Chronic Obstructive Lung Disease (GOLD) Workshop summary. Am J Respir Crit Care Med 2001; 163:1256-1276;; herein incorporated in its entirety by reference) (<30%, ≧30% to <50%, and ≧50%, respectively). Pairwise comparisons between treatment groups were performed using least square means (LS means) from the linear model with the study baseline (or predose where applicable) as a covariate and the treatment group as a fixed effect.

[3] = baseline percent predicted FEV1 <50%
[4] = baseline percent predicted FEV1 ≧50%
[5] = ITT, transition focal score range −9 to 9
[6] = baseline percent predicted FEV1 <50%, combined versus the mono-therapy
[7] = baseline percent predicted FEV1 ≧50%, combined versus the mono-therapy

| Structure (SMILES) | Mean (SD) inspiratory capacity improvement from baseline (COPD patients [1]) [L] | Difference in trough FEV1 between combined therapy and mono-therapies, LS mean (COPD patients [1]) [L] | Change in trough inspiratory capacity, mean (SD) (COPD patients [1]) | Difference between combined therapy and mono-therapies in change in inspiratory capacity, LS mean (COPD patients [1]; [3]) [L] | Change in Inspiratory Capacity, mean (SD) (COPD patients [1]; [3]) | Difference between combined therapy and mono-therapies in change in inspiratory capacity, LS mean (COPD patients [1]; [4]) [L] | Change in Inspiratory Capacity, mean (SD) (COPD patients [1]; [4]) | Patients with change ≧1 unit (TDI), n (%) (COPD patients [2]; ITT) | TDI, mean (SD) (COPD patients [2]; [5]) | Patients with change of ≧1 unit (TDI), n (%) (COPD patients [2]; [3]) | TDI, mean (SD) (COPD patients [2]; [3]) | Difference between combined therapy and mono-therapies in TDI, LS mean (COPD patients [2]; [6]) | TDI, mean (SD) (COPD patients [2]; [4]) | Patients with change of ≧1 unit (TDI), % (COPD patients [2]; [4]) | Difference between combined therapy and mono-therapies in TDI, LS mean (COPD patients [2]; [7]) | improvement in TDI (COPD patients [2]) [units] | Difference between combined therapy and mono-therapies in TDI, LS mean (COPD patients [2]; ITT, combined therapy versus the mono-therapy) [L] |
| --- | --- | --- | --- | --- | --- | --- | --- | --- | --- | --- | --- | --- | --- | --- | --- | --- | --- |
| COc1ccc(C[C@@H](C)NC[C@H](O)c2ccc(O)c(NC=O)c2)cc1 [Arformoterol] | 0.20 | 0.07 | 0.07 (0.30) L | 0.08 | 0.12 (0.31) L | 0.06 | −0.01 (0.27) L | 50 (66.7) n (%) | 2.3 (2.4) | 34 (72.3) n (%) | 2.3 (2.3) | 1.3 | 2.3 (2.6) | 17 (57.1) % | 0.2 | 2.3 |  |
| C[N+]1(C)[C@@H]2C[C@@H](OC(=O)C(O)(c3cccs3)c3cccs3)C[C@H]1[C@@H]1O[C@@H]12 [Tiotropium] | 0.19 | 0.12 | 0.02 (0.29) L | 0.17 | 0.02 (0.27) L | 0.02 | 0.04 (0.33) L | 44 (57.1) n (%) | 1.8 (2.8) | 25 (52.1) n (%) | 1.6 (3.0) | 2.0 | 2.3 (2.5) | 19 (67.9) % | 0.3 | 1.6 | 1.3 |
